Measured values from ChEMBL document CHEMBL4507266, “Data for DCP probe BAY-784” (2021).

Key:
[1] = test system: Tyrosine-protein kinase ABL1 (Homo sapiens), P00519 [F317I]; conditions: Compound concentration 1000.0 nM
[2] = test system: Tyrosine-protein kinase ABL1 (Homo sapiens), P00519 [H396P]; conditions: Compound concentration 1000.0 nM
[3] = test system: ALK tyrosine kinase receptor (Homo sapiens), Q9UM73 [L1196M]; conditions: Compound concentration 1000.0 nM
[4] = target: Tyrosine-protein kinase Blk (Homo sapiens) (UniProt P51451); conditions: Compound concentration 1000.0 nM
[5] = target: Serine/threonine-protein kinase BRSK1 (Homo sapiens) (UniProt Q8TDC3); conditions: Compound concentration 1000.0 nM
Chain of Serine/threonine-protein kinase BRSK1 (Homo sapiens) (Q8TDC3 whole entry, canonical isoform): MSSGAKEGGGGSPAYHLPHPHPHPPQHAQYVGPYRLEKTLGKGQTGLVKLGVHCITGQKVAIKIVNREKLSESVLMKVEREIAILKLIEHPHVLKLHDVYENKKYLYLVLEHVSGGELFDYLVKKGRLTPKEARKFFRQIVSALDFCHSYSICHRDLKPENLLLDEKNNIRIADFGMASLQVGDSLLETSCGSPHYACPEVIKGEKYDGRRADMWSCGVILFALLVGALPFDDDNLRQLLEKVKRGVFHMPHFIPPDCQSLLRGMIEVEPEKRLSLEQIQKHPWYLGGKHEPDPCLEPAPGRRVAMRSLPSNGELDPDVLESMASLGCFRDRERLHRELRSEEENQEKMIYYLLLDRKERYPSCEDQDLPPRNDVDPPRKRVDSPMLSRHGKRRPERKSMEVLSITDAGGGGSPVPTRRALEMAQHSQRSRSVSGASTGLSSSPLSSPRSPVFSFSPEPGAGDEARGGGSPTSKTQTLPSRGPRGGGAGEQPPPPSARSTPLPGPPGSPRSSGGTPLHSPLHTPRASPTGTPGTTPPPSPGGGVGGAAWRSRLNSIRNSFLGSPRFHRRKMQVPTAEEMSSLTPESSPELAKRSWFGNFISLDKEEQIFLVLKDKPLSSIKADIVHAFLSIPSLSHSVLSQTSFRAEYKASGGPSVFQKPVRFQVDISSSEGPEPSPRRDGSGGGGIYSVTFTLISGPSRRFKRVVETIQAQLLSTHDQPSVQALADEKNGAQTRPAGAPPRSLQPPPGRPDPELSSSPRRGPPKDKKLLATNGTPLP

[6] = target: Casein kinase I isoform gamma-1 (Homo sapiens) (UniProt Q9HCP0); conditions: Compound concentration 1000.0 nM
[7] = target: Casein kinase II subunit alpha (Homo sapiens) (UniProt P68400); conditions: Compound concentration 1000.0 nM
Chain of Casein kinase II subunit alpha (Homo sapiens) (P68400 whole entry, looked up): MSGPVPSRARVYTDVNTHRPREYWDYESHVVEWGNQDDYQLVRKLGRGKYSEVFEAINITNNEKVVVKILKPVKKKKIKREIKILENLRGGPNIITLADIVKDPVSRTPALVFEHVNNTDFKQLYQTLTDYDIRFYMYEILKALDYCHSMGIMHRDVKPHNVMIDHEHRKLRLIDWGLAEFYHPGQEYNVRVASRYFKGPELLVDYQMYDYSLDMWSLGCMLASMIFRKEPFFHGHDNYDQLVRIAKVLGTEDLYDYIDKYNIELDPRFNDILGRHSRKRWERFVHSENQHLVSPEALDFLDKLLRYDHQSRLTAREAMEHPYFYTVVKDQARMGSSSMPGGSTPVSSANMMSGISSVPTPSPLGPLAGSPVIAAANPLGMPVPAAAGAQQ

[8] = target: Serine/threonine-protein kinase 17B (Homo sapiens) (UniProt O94768); conditions: Compound concentration 1000.0 nM
[9] = target: Epidermal growth factor receptor (Homo sapiens) (UniProt P00533); conditions: Compound concentration 1000.0 nM
[10] = target: Ephrin type-B receptor 1 (Homo sapiens) (UniProt P54762); conditions: Compound concentration 1000.0 nM
[11] = target: Mitogen-activated protein kinase 3 (Homo sapiens) (UniProt P27361); conditions: Compound concentration 1000.0 nM
[12] = target: Mitogen-activated protein kinase 4 (Homo sapiens) (UniProt P31152); conditions: Compound concentration 1000.0 nM
Chain of Mitogen-activated protein kinase 4 (Homo sapiens) (P31152 whole entry): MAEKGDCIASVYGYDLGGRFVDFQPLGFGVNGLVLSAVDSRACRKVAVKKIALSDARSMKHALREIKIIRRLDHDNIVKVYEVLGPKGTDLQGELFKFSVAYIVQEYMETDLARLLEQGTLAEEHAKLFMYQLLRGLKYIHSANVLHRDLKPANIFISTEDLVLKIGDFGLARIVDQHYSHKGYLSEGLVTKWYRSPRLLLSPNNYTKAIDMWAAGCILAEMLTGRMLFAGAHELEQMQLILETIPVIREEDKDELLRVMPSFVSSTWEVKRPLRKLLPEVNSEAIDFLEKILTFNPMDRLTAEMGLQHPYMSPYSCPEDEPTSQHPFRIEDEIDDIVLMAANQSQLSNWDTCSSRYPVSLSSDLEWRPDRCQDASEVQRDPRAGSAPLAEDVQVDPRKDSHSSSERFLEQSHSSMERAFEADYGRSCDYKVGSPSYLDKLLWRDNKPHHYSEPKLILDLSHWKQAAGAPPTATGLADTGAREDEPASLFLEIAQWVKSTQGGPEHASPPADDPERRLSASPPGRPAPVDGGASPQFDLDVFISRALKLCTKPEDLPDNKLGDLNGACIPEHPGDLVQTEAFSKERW

[13] = test system: Receptor-type tyrosine-protein kinase FLT3 (Homo sapiens), P36888 [R834Q]; conditions: Compound concentration 1000.0 nM
[14] = target: Rhodopsin kinase GRK7 (Homo sapiens) (UniProt Q8WTQ7); conditions: Compound concentration 1000.0 nM
[15] = target: Inhibitor of nuclear factor kappa-B kinase subunit alpha (Homo sapiens) (UniProt O15111); conditions: Compound concentration 1000.0 nM
[16] = target: Tyrosine-protein kinase JAK2 (Homo sapiens) (UniProt O60674); conditions: Compound concentration 1000.0 nM
[17] = target: Tyrosine-protein kinase Lck (Homo sapiens) (UniProt P06239); conditions: Compound concentration 1000.0 nM
Chain of Tyrosine-protein kinase Lck (Homo sapiens) (P06239 2-509 limits assumed): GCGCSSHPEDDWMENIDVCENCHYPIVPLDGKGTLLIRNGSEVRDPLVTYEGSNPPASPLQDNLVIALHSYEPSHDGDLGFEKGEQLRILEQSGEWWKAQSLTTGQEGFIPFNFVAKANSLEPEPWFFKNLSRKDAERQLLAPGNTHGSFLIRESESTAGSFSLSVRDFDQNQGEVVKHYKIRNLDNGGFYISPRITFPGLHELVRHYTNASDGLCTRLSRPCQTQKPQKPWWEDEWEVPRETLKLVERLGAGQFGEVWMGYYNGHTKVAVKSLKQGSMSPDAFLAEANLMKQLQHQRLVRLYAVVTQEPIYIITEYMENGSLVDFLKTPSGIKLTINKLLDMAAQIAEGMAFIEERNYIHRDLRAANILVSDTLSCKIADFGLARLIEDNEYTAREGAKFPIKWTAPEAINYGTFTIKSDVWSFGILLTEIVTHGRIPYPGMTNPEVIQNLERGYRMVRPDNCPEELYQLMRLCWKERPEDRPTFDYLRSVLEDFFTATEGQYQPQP

[18] = test system: Leucine-rich repeat serine/threonine-protein kinase 2 (Homo sapiens), Q5S007 [G2019S]; conditions: Compound concentration 1000.0 nM
[19] = target: MAP/microtubule affinity-regulating kinase 4 (Homo sapiens) (UniProt Q96L34); conditions: Compound concentration 1000.0 nM
[20] = target: Muscle, skeletal receptor tyrosine-protein kinase (Homo sapiens) (UniProt O15146); conditions: Compound concentration 1000.0 nM
[21] = target: Platelet-derived growth factor receptor alpha (Homo sapiens) (UniProt P16234); conditions: Compound concentration 1000.0 nM
[22] = target: Cyclin-dependent kinase 14 (Homo sapiens) (UniProt O94921); conditions: Compound concentration 1000.0 nM
[23] = target: Phosphatidylinositol 3-kinase C2 domain-containing subunit gamma (Homo sapiens) (UniProt O75747); conditions: Compound concentration 1000.0 nM
[24] = test system: Phosphatidylinositol 4,5-bisphosphate 3-kinase catalytic subunit alpha isoform (Homo sapiens), P42336 [H1047L]; conditions: Compound concentration 1000.0 nM
[25] = target: Phosphatidylinositol 4-kinase beta (Homo sapiens) (UniProt Q9UBF8); conditions: Compound concentration 1000.0 nM
[26] = target: Phosphatidylinositol 4-phosphate 5-kinase type-1 gamma (Homo sapiens) (UniProt O60331); conditions: Compound concentration 1000.0 nM
Chain of Phosphatidylinositol 4-phosphate 5-kinase type-1 gamma (Homo sapiens) (O60331 whole entry): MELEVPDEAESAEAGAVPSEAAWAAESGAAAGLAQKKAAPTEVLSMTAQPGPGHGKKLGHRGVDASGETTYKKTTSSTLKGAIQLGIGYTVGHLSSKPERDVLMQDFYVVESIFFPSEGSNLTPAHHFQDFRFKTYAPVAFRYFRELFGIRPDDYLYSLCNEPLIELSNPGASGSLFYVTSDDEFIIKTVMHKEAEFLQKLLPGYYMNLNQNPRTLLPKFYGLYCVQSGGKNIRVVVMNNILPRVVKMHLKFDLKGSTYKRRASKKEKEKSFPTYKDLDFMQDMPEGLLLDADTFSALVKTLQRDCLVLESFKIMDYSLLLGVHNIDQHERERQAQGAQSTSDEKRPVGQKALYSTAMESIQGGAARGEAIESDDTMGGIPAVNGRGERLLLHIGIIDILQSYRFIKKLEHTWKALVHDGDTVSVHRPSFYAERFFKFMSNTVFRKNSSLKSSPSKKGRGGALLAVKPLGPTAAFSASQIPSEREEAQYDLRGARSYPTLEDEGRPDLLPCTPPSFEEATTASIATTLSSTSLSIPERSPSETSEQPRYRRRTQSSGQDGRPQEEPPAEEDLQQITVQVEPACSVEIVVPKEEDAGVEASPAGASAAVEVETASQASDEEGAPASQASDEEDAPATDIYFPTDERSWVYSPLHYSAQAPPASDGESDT

[27] = target: Serine/threonine-protein kinase N2 (Homo sapiens) (UniProt Q16513); conditions: Compound concentration 1000.0 nM
[28] = target: Protein-tyrosine kinase 2-beta (Homo sapiens) (UniProt Q14289); conditions: Compound concentration 1000.0 nM
[29] = test system: Proto-oncogene tyrosine-protein kinase receptor Ret (Homo sapiens), P07949 [V804M]; conditions: Compound concentration 1000.0 nM
[30] = target: Tyrosine-protein kinase Srms (Homo sapiens) (UniProt Q9H3Y6); conditions: Compound concentration 1000.0 nM
[31] = target: Serine/threonine-protein kinase TAO1 (Homo sapiens) (UniProt Q7L7X3); conditions: Compound concentration 1000.0 nM
Chain of Serine/threonine-protein kinase TAO1 (Homo sapiens) (Q7L7X3 whole entry): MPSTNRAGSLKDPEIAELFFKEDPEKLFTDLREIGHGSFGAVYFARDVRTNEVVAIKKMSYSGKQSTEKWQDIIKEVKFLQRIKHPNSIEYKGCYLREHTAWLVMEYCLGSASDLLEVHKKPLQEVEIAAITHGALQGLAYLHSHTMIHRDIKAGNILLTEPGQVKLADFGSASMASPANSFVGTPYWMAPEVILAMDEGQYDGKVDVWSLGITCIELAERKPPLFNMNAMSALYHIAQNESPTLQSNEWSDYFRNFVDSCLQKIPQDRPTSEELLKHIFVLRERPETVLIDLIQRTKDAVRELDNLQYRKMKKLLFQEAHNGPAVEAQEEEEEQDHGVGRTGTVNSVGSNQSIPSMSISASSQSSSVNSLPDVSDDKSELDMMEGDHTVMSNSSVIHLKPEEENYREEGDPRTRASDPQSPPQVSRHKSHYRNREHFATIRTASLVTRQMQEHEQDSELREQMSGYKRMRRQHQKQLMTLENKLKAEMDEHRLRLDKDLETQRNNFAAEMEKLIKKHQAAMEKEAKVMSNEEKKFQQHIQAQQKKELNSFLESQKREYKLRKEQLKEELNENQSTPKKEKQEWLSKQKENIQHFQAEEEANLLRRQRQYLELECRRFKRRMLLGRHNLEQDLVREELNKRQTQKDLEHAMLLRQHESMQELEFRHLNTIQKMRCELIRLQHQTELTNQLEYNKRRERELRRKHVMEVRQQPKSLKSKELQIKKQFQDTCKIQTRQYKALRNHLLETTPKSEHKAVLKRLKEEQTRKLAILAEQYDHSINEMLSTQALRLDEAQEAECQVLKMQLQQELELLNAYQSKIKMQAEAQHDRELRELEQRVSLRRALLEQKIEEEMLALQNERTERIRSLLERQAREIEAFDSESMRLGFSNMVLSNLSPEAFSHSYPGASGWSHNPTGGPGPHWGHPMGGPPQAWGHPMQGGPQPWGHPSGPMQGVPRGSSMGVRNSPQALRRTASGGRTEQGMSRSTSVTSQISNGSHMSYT

[32] = target: Testis-specific serine/threonine-protein kinase 1 (Homo sapiens) (UniProt Q9BXA7); conditions: Compound concentration 1000.0 nM
Chain of Testis-specific serine/threonine-protein kinase 1 (Homo sapiens) (Q9BXA7 whole entry): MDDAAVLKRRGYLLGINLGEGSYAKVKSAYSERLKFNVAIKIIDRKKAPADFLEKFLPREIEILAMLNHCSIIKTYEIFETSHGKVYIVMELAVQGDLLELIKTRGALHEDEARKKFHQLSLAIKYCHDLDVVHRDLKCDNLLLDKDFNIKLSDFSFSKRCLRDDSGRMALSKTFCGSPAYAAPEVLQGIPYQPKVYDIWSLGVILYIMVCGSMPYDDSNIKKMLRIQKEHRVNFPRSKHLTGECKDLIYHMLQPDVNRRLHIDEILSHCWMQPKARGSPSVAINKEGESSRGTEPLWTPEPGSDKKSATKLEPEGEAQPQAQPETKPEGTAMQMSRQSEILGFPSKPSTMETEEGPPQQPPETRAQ

[33] = target: Serine/threonine-protein kinase ULK3 (Homo sapiens) (UniProt Q6PHR2); conditions: Compound concentration 1000.0 nM
[34] = target: Serine/threonine-protein kinase WNK3 (Homo sapiens) (UniProt Q9BYP7); conditions: Compound concentration 1000.0 nM
[35] = target: Serine/threonine-protein kinase 32B (Homo sapiens) (UniProt Q9NY57); conditions: Compound concentration 1000.0 nM
[36] = target: Tyrosine-protein kinase ZAP-70 (Homo sapiens) (UniProt P43403); conditions: Compound concentration 1000.0 nM
[37] = target: 5-hydroxytryptamine receptor 2B (Homo sapiens) (UniProt P41595); conditions: Compound concentration 10.0 uM
Chain of 5-hydroxytryptamine receptor 2B (Homo sapiens) (P41595 whole entry): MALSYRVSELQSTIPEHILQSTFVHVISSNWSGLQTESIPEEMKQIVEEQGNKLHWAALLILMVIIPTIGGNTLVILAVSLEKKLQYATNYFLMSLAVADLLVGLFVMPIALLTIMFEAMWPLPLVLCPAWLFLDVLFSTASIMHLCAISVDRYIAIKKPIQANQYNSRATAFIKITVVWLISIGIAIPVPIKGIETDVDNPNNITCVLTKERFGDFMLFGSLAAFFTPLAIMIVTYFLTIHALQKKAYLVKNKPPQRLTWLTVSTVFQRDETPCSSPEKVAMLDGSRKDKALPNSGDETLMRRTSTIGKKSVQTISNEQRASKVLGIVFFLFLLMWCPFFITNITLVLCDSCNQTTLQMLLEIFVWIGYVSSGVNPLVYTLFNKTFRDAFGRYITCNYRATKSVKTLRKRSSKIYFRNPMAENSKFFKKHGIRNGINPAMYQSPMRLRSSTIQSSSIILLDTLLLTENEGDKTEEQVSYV

[38] = target: 5-hydroxytryptamine receptor 7 (Homo sapiens) (UniProt P34969); conditions: Compound concentration 10.0 uM
[39] = target: T1, D(4) dopamine receptor (Homo sapiens) (UniProt P21917); conditions: Compound concentration 10.0 uM
T1 sequence (whole entry): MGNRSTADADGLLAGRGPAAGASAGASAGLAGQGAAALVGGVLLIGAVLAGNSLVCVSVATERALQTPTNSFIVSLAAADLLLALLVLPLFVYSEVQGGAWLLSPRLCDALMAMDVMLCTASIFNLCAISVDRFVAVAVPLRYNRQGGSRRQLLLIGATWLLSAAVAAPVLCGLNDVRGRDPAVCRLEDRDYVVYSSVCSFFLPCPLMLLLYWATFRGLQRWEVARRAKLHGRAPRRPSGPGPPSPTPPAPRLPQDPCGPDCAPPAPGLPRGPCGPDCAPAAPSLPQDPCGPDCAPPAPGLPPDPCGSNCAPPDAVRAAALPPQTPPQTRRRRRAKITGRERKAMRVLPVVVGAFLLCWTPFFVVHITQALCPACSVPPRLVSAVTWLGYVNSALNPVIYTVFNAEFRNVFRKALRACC

[40] = target: Mu-type opioid receptor (Homo sapiens) (UniProt P35372); conditions: Compound concentration 10.0 uM

O=C(NCc1ncc(C(F)(F)F)cc1Cl)c1ccc2c(c1)C1(CCS(=O)(=O)CC1)[C@@H](C1CC1)N2S(=O)(=O)c1ccc(F)cc1 [BAY-786]
inactive: residual activity [1] 71% | residual activity [2] 100% | residual activity [3] 87% | residual activity [4] 100% | residual activity [5] 100% | residual activity [6] 90% | residual activity [7] 67% | residual activity [8] 87% | residual activity [9] 100% | residual activity [10] 100% | residual activity [11] 83% | residual activity [12] 89% | residual activity [13] 84% | residual activity [14] 65% | residual activity [15] 84% | residual activity [16] 70% | residual activity [17] 100% | residual activity [18] 100% | residual activity [19] 100% | residual activity [20] 79% | residual activity [21] 87% | residual activity [22] 100% | residual activity [23] 75% | residual activity [24] 85% | residual activity [25] 100% | residual activity [26] 94% | residual activity [27] 68% | residual activity [28] 100% | residual activity [29] 100% | residual activity [30] 60% | residual activity [31] 91% | residual activity [32] 100% | residual activity [33] 69% | residual activity [34] 70% | residual activity [35] 96% | residual activity [36] 72% | inhibition [37] -2.32% | inhibition [38] -4.83% | inhibition [39] -5.22% | inhibition [40] 13.1%

O=C(NCc1ncc(C(F)(F)F)cc1Cl)c1ccc2c(c1)C1(CCS(=O)(=O)CC1)[C@H](C1CC1)N2S(=O)(=O)c1ccc(F)cc1 [BAY-784]
inactive: residual activity [1] 83% | residual activity [2] 100% | residual activity [3] 76% | residual activity [4] 78% | residual activity [5] 100% | residual activity [6] 86% | residual activity [7] 66% | residual activity [8] 85% | residual activity [9] 95% | residual activity [10] 100% | residual activity [11] 100% | residual activity [12] 91% | residual activity [13] 90% | residual activity [14] 80% | residual activity [15] 77% | residual activity [16] 80% | residual activity [17] 100% | residual activity [18] 100% | residual activity [19] 100% | residual activity [20] 100% | residual activity [21] 90% | residual activity [22] 100% | residual activity [23] 75% | residual activity [24] 77% | residual activity [25] 78% | residual activity [26] 100% | residual activity [27] 70% | residual activity [28] 100% | residual activity [29] 100% | residual activity [30] 71% | residual activity [31] 100% | residual activity [32] 100% | residual activity [33] 85% | residual activity [34] 86% | residual activity [35] 100% | residual activity [36] 84% | inhibition [37] -2.53% | inhibition [38] -8.16% | inhibition [39] 1.57% | inhibition [40] 29.1%
